According to publication PMC4306533, “Distinct Features of Cap Binding by eIF4E1b Proteins” (Journal of Molecular Biology, 2015):

What was measured:
in vitro translation = system: in vitro translation; parameters: method as in PMID 10387101; conditions: Cai et al.; read-out: IC50 (inhibitory potency); cited from earlier work
[1] = biological target: T1, X4E1a3 (E101S/K102R/S195A) (Xenopus laevis, UniProt P48597, E101S/K102R/S195A); assay: fluorescence titration, XeIF4E1a mutant; type: binding; conditions: mutant (E101S/K102R/S195A) of XeIF4E1a
T1 construct: made in house; host or cells: E. coli Rosetta2(DE3)
Source text: (§1) We tested the effect on cap-binding activity of these positions in the fluorescence assay with six mutated recombinant versions of Xenopus eIF4E1a (Fig. S4). The amino acids were introduced in XeIF4E1a sequentially in the order: E101S/K102R/S195A/M82S/T206L/T207S (numbering of the XeIF4E1a sequence is shifted backward by 4 amino acids relative to XeIF4E1b). […] The biggest contribution to the weaker cap binding of XeIF4E1a, in each case about 20%, resulted from changing Glu101 to Ser and Thr206 to Leu coupled with Thr207 to Ser, with the remaining mutations having only minor effects. […] Glu101 is a solvent-accessible amino acid and is proximal to Trp98 in the S3-S4 loop. […] Attenuation of the cap-binding affinity of XeIF4E1a resulting from mutating Thr206 and Thr207 is consistent with our results mentioned above showing significant influence of C-terminal loop residues on binding phosphate and the second nucleotide.
(§2) For human eIF4E1a and eIF4E1b and also for Xenopus eIF4E1a and its mutated forms, measurements were carried out using 0.1 μM protein in 50 mM Hepes/KOH (pH 7.2), 134.5 mM KCl, 0.5 mM EDTA and 1 mM DTT. For Xenopus eIF4E1b(ΔN27), the concentration was 0.2 μM and glycerol was added to the buffer to 10% (v/v) final concentration. […] The gradually increasing concentration of cap analogue quenches protein fluorescence without shifting the spectrum maximum, while at high concentrations, the fluorescence signal of free cap analogue dominates over the fluorescence from other solution components including free eIF4E and eIF4E in complex with cap (Fig. S2a). Fluorescence of measured samples was excited at 280 nm (2.5 nm bandwidth) and detected at 337 nm or 330 nm (4 nm bandwidth), thus reducing the signal originated from the free cap analogues. Measurements were carried out on a LS-55 spectrofluorometer (Perkin Elmer Co.) using freshly prepared proteins, and the fluorescence intensities were corrected for sample dilution and the inner filter effect.
(§3) Equilibrium association constants (Kas) were determined by fitting the theoretical dependence of fluorescence intensity on the total concentration of the cap analogue to the experimental data points, according to the equation described previously (see Ref. [22] and Fig. S2c). […] Along with Kas and the concentration of the active protein [P0^act], other parameters such as fL and ∆f = fPact − fPL are also gained from the fit, where fL represents the fluorescence efficiency of free cap analogue and ∆f represents the difference between the fluorescence efficiencies of the apo-protein and the complex (Fig. S2c).
(§4) The final Kas was calculated as a weighted average of 2–6 independent titrations with the weights taken as the reciprocal of the numerical standard deviation squared. Numerical, nonlinear least-squares regression analysis was performed using Origin 6.0 (Microcal Software Inc.). Obtained association constants were used to determine the Gibbs free energy according to the standard equation ΔG° = − RTlnKas.

X4E1a1’ (K102R) = biological target: T2, X4E1a1’ (K102R) (Xenopus laevis, UniProt P48597, K102R); assay: fluorescence titration, XeIF4E1a mutant; type: binding; conditions: mutant (K102R) of XeIF4E1a
T2 construct: made in house; host or cells: E. coli Rosetta2(DE3)
Source text: as §1, §2, §3, §4

X4E1a2 (E101S/K102R) = biological target: T3, X4E1a2 (E101S/K102R) (Xenopus laevis, UniProt P48597, E101S/K102R); assay: fluorescence titration, XeIF4E1a mutant; type: binding; conditions: mutant (E101S/K102R) of XeIF4E1a
T3 construct: made in house; host or cells: E. coli Rosetta2(DE3)
Source text: as §1, §2, §3, §4

[2] = biological target: T4, X4E1a4 (E101S/K102R/S195A/M82S) (Xenopus laevis, UniProt P48597, E101S/K102R/M82S/S195A); assay: fluorescence titration, XeIF4E1a mutant; type: binding; conditions: mutant (E101S/K102R/S195A/M82S) of XeIF4E1a
T4 construct: made in house; host or cells: E. coli Rosetta2(DE3)
Source text: as §1, §2, §3, §4

X4E1a1 (E101S) = biological target: T5, X4E1a1 (E101S) (Xenopus laevis, UniProt P48597, E101S); assay: fluorescence titration, XeIF4E1a mutant; type: binding; conditions: mutant (E101S) of XeIF4E1a
T5 construct: made in house; host or cells: E. coli Rosetta2(DE3)
Source text: as §1, §2, §3, §4

[3] = biological target: T6, X4E1a6 (E101S/K102R/S195A/M82S/T206L/T207S) (Xenopus laevis, UniProt P48597, E101S/K102R/M82S/S195A/T206L/T207S); assay: fluorescence titration, XeIF4E1a mutant; type: binding; conditions: for Kas X4E1a6: mutant (E101S/K102R/S195A/M82S/T206L/T207S) of XeIF4E1a
T6 construct: made in house; host or cells: E. coli Rosetta2(DE3)
Source text: as §1, §2, §3, §4

heIF4E1a [4] = biological target: T7, heIF4E1a (Homo sapiens, UniProt P06730); parameters: method as in PMID 17369309; conditions: equilibrium association constant; buffer without glycerol; footnote b; cited from earlier work
T7 construct: made in house; host or cells: E. coli Rosetta2(DE3)

XeIF4E1bΔN27 = assay: time-synchronized fluorescence titration of cap analogue binding; parameters: species or system Xenopus laevis; conditions: 10% glycerol; for Kas + glycerol XeIF4E1bΔN27: equilibrium association constant
Source text: (§5) The time-synchronized fluorescence titration method, widely used to determine the affinity constants of cap–eIF4E complexes [[20,22–26]], measures the quenching of the intrinsic fluorescence of tryptophan residues due to cap binding (Fig. S2). Knowledge of the equilibrium association constant Kas enables the calculation of the free-energy changes involved in the interaction between eIF4E and ligand, according to the standard equation ΔG° = − RTlnKas.
(§6) For human eIF4E1a and eIF4E1b and also for Xenopus eIF4E1a and its mutated forms, measurements were carried out using 0.1 μM protein in 50 mM Hepes/KOH (pH 7.2), 134.5 mM KCl, 0.5 mM EDTA and 1 mM DTT. For Xenopus eIF4E1b(ΔN27), the concentration was 0.2 μM and glycerol was added to the buffer to 10% (v/v) final concentration. […] Fluorescence of measured samples was excited at 280 nm (2.5 nm bandwidth) and detected at 337 nm or 330 nm (4 nm bandwidth), thus reducing the signal originated from the free cap analogues. Measurements were carried out on a LS-55 spectrofluorometer (Perkin Elmer Co.) using freshly prepared proteins, and the fluorescence intensities were corrected for sample dilution and the inner filter effect.
(§7) Equilibrium association constants (Kas) were determined by fitting the theoretical dependence of fluorescence intensity on the total concentration of the cap analogue to the experimental data points, according to the equation described previously (see Ref. [22] and Fig. S2c).
as §4

XeIF4E1a [5] = assay: as above; parameters: species or system Xenopus laevis; conditions: without glycerol
Source text: as §5, §6, §7, §4

heIF4E1b [6] = assay: as above; parameters: species or system human; conditions: without glycerol
Source text: as §5, §6, §7, §4

heIF4E1b [7] = biological target: T8, heIF4E1b (Homo sapiens, UniProt A6NMX2); assay: as above; conditions: for Kas − glycerol heIF4E1b: equilibrium association constant, buffer without glycerol
T8 construct: made in house; host or cells: E. coli Rosetta2(DE3)
T8 sequence (A6NMX2 1-242): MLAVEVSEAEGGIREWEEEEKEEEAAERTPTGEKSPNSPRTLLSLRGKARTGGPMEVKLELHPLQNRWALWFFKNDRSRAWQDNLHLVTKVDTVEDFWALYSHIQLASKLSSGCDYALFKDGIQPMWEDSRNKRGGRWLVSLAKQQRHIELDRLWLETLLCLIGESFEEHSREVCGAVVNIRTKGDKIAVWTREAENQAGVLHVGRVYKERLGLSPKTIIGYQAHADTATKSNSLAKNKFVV
Source text: as §5, §6, §7, §4

XeIF4E1a [8] = biological target: T9, XeIF4E1a (Xenopus laevis, UniProt P48597); assay: as above; conditions: for Kas + glycerol XeIF4E1a / Kas − glycerol XeIF4E1a: equilibrium association constant; for Kas − glycerol XeIF4E1a: buffer without glycerol
T9 construct: made in house; host or cells: E. coli Rosetta2(DE3)
Source text: as §5, §6, §7, §4

eIF4E1a = biological target: eIF4E1a; parameters: method as in PMID 19351181; conditions: Ghosh et al.; cited from earlier work
heIF4E1a [9] = biological target: T7, heIF4E1a; assay: time-synchronized fluorescence titration of cap analogue binding; conditions: change relative to m^7GTP; without glycerol
Source text: as §5, §6, §7, §4

[10] = change relative to m^7GTP, without glycerol

T6 sequence (P48597 whole entry M82S/E101S/K102R/S195A/T206L/T207S): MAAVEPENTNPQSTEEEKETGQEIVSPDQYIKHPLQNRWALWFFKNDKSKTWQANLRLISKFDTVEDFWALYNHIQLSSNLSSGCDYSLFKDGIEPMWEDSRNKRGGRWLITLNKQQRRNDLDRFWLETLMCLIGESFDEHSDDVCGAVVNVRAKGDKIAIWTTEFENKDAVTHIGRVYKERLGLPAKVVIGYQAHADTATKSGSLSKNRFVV
T7 sequence (P06730 whole entry): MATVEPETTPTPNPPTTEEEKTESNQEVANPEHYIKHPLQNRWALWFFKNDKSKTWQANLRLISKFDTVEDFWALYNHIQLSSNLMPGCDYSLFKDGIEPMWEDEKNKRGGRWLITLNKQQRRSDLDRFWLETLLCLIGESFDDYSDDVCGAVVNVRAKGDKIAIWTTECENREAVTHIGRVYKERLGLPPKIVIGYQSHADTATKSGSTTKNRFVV
T9 sequence (P48597 whole entry): as the sequence (P48597 whole entry M82S/E101S/K102R/S195A/T206L/T207S) above, with S82M, S101E, R102K, A195S, L206T, S207T counted along it
T3 sequence (P48597 whole entry E101S/K102R): as the sequence (P48597 whole entry M82S/E101S/K102R/S195A/T206L/T207S) above, with S82M, A195S, L206T, S207T counted along it
T2 sequence (P48597 whole entry K102R): as the sequence (P48597 whole entry M82S/E101S/K102R/S195A/T206L/T207S) above, with S82M, S101E, A195S, L206T, S207T counted along it
T1 sequence (P48597 whole entry E101S/K102R/S195A): as the sequence (P48597 whole entry M82S/E101S/K102R/S195A/T206L/T207S) above, with S82M, L206T, S207T counted along it
T5 sequence (P48597 whole entry E101S): as the sequence (P48597 whole entry M82S/E101S/K102R/S195A/T206L/T207S) above, with S82M, R102K, A195S, L206T, S207T counted along it
T4 sequence (P48597 whole entry M82S/E101S/K102R/S195A): as the sequence (P48597 whole entry M82S/E101S/K102R/S195A/T206L/T207S) above, with L206T, S207T counted along it

Row | Kas X4E1a3 [1] [µM⁻¹] | Kas X4E1a1’ (X4E1a1’ (K102R)) [µM⁻¹] | Kas X4E1a2 (X4E1a2 (E101S/K102R)) [µM⁻¹] | Kas X4E1a4 [2] [µM⁻¹] | Kas X4E1a1 (X4E1a1 (E101S)) [µM⁻¹] | Kas X4E1a6 [3] [µM⁻¹] | Ratio Kas (X4E1a) to Kas (X4E1bΔN27) (XeIF4E1bΔN27) | Kas + glycerol XeIF4E1bΔN27 (XeIF4E1bΔN27) [μM^− 1] | Ratio Kas (h4E1a) to Kas (X4E1a) (XeIF4E1a [5]) | Ratio Kas (h4E1a) to Kas (h4E1b) (heIF4E1b [6]) | Kas − glycerol heIF4E1b (heIF4E1b [7]) [μM^− 1] | Kas + glycerol XeIF4E1a (XeIF4E1a [8]; 10% glycerol) [μM^− 1] | Kas − glycerol XeIF4E1a (XeIF4E1a [8]) [μM^− 1] | Structure (SMILES) | IC50 (in vitro translation) [µM] | Kas − glycerol heIF4E1a (heIF4E1a [4]) | Kd (eIF4E1a) [µM] | other results
1 | 8.53 ± 0.36 | 11.09 ± 0.21 | 8.80 ± 0.16 | 7.68 ± 0.40 | 10.1 ± 1.2 | 6.82 ± 0.17 | 2.45 | 2.43 ± 0.15 | 1.56 | 2.32 | 7.64 ± 0.71 | 5.97 ± 0.37 | 11.42 ± 0.50 | Cn1c[n+]([C@@H]2O[C@H](COP(=O)(O)OP(=O)([O-])O)[C@@H](O)[C@H]2O)c2nc(N)[nH]c(=O)c21 [m^7GDP] | 7.5 | 17.76 ± 0.34 ^b μM^− 1 | – | Kas + glycerol X4E1a6 ([3]; 10% glycerol, Fig. 5d): 3.68 ± 0.10 µM⁻¹
2 | – | – | – | – | – | – | – | – | – | – | – | – | – | Nc1nc2c(c(=O)[nH]1)[n+](Cc1ccccc1)cn2[C@@H]1O[C@H](COP(=O)([O-])O)[C@@H](O)[C@H]1O [bn^7GMP] | 113 | – | 0.8 | fold higher binding to eIF4E1a than m^7GMP (eIF4E1a): 10 fold
3 | – | – | – | – | – | – | – | – | – | – | 0.628 ± 0.016 | 0.256 ± 0.018 | 0.567 ± 0.012 | Cn1c[n+]([C@@H]2O[C@H](COP(=O)(O)O)[C@@H](O)[C@H]2O)c2nc(N)[nH]c(=O)c21 [m^7GMP] | 382 | – | 7.5 | –
4 | 2.417 ± 0.051 | 3.341 ± 0.090 | 2.81 ± 0.10 | 2.87 ± 0.11 | 3.38 ± 0.16 | 2.54 ± 0.15 | 2.59 | 0.883 ± 0.032 | 1.49 | 1.68 | 3.53 ± 0.11 | 2.291 ± 0.065 | 3.98 ± 0.11 | Cn1c[n+]([C@@H]2O[C@H](COP(=O)(O)OP(=O)([O-])OP(=O)(O)OC[C@H]3O[C@@H](n4cnc5c(=O)[nH]c(N)nc54)[C@H](O)[C@@H]3O)[C@@H](O)[C@H]2O)c2nc(N)[nH]c(=O)c21 [m^7GpppG] | – | 5.94 ± 0.39 ^b μM^− 1 | – | ΔΔG^o + glycerol XeIF4E1bΔN27 (XeIF4E1bΔN27; change relative to m^7GTP): 1.268 ± 0.037 kcal/mol; ΔΔG^o − glycerol heIF4E1b (heIF4E1b [7]; [10]): 1.065 ± 0.040 kcal/mol; ΔΔG^o + glycerol XeIF4E1a (XeIF4E1a [8]; change relative to m^7GTP, 10% glycerol): 1.351 ± 0.028 kcal/mol; ΔΔG^o − glycerol XeIF4E1a (XeIF4E1a [8]; [10]): 1.382 ± 0.032 kcal/mol; ΔΔG^o − glycerol heIF4E1a (heIF4E1a [9]): 1.423 ± 0.058 kcal/mol
